Patent EP1247803A2, “Indolinone compounds suitable for modulation of protein kinases” (Sugen, Inc., priority 1996, dated 1998)

Assays:
FLK-1 receptor = biological target: T1, FLK-1 receptor (Mus musculus, UniProt P35918); assay: FLK-1 ELISA (kinase activity of the FLK-1 receptor in FLK-1/NIH3T3 cells, VEGF stimulated); type: cell-based
T1 construct: expressed in transfected cells; host or cells: NIH3T3 C7#3
Method in brief: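 NIH3T3 C7#3 cells expressing FLK-1 were seeded at 25.000 cells/well, serum-starved overnight in 0.1% FBS, then treated with compound for two hours at 37°C (final DMSO 0.5%) before VEGF stimulation. Receptor was captured on anti-rabbit IgG-coated ELISA plates bearing affinity-purified anti-FLK-1 antiserum.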

PDGF-R = PDGF-R (Homo sapiens, UniProt P09619); assay: PDGF-R ELISA; type: cell-based
Chain of PDGF-R (P09619 33-1106, species assumed): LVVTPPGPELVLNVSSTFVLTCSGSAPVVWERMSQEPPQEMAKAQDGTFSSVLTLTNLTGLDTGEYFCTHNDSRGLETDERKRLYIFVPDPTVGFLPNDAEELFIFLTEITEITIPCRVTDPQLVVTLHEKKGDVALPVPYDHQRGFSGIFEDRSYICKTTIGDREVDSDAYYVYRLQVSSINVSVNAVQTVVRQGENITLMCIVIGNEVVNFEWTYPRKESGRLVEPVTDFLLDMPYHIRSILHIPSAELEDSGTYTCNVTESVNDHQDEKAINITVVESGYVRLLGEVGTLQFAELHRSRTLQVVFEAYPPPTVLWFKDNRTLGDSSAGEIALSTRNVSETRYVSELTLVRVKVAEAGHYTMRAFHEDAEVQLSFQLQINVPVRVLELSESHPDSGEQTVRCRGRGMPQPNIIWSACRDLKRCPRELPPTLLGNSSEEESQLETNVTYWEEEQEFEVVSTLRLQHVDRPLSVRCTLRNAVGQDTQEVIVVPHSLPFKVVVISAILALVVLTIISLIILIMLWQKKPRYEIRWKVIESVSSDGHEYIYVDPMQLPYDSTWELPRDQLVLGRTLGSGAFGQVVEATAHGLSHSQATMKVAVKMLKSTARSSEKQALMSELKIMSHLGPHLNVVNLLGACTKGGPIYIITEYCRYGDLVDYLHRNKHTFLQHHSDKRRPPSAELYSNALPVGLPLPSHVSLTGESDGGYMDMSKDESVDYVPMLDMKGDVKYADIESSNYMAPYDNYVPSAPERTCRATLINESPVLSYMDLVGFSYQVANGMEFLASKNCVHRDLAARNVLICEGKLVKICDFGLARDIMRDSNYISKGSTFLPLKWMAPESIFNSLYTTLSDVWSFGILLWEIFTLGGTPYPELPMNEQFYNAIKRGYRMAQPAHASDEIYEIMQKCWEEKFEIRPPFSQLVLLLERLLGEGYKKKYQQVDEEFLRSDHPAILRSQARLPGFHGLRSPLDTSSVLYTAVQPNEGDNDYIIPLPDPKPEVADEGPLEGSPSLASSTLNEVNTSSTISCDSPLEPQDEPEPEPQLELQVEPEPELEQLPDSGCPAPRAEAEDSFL
Source text: A PDGF-R ELISA is described in International Patent Publication No. WO 96/40116, published December 19, 1996 by Tang et al.

T1 sequence (P35918 20-1345): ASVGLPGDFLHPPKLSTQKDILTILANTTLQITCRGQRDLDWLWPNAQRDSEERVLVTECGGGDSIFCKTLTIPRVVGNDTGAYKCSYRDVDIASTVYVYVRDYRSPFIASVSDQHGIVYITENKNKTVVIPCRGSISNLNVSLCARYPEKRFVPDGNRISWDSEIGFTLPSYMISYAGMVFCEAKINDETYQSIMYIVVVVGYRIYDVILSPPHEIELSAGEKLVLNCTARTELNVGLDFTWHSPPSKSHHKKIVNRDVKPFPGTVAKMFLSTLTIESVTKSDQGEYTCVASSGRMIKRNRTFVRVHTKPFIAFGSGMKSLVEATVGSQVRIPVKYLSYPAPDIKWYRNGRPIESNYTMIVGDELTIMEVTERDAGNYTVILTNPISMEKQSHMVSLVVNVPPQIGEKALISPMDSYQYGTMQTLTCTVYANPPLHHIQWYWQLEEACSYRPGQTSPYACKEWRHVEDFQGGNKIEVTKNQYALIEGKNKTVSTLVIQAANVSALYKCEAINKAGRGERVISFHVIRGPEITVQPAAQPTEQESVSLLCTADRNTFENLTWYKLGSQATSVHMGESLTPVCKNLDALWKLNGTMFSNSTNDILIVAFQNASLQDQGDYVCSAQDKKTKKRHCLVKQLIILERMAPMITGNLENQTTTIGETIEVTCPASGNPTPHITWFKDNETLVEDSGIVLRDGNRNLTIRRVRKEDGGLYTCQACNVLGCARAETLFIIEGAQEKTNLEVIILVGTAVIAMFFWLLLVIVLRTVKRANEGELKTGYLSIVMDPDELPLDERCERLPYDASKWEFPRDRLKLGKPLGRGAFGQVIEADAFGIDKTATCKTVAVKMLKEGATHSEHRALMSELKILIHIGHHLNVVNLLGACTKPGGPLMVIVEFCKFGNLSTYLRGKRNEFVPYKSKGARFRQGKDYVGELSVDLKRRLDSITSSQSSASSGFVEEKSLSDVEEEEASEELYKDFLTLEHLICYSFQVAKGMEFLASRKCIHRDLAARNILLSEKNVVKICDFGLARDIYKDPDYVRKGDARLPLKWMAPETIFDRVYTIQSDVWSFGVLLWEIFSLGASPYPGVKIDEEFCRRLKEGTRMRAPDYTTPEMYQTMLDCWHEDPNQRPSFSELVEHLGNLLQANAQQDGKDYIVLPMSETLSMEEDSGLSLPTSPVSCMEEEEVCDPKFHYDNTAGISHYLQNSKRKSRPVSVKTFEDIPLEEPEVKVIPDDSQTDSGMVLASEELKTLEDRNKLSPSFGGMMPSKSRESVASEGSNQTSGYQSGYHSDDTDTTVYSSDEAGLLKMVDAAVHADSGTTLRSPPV

Compound | Fik Kinase %Inhibition (FLK-1 receptor) [%] | PDGF Kinase %Inhibition (PDGF-R)
COc1ccc(OC)c(C=C2C(=O)Nc3ccc(I)cc32)c1 [10728/B02] | -11.1 | -0.4%
CCOC(=O)CCc1c(C(=O)OCC)[nH]c(C=C2C(=O)Nc3c(Br)cc(Br)cc32)c1CC(=O)OCC [10718/A05] | 3.2 | –
CCc1cc(CC)c(C=C2C(=O)Nc3ccc(S(=O)(=O)Nc4ccc(C(F)(F)F)cc4)cc32)[nH]1 [10727/E03] | 11.1 | 5.7%
N#Cc1cccc(C=C2C(=O)Nc3ccc(S(=O)(=O)N4CCOCC4)cc32)c1 [10727/F08] | 12.5 | 10.1%
COc1cc(C=C2C(=O)Nc3ccc(Br)c(C)c32)cc2c1OCO2 [10728/C11] | -10.1 | 8.5%
CNS(=O)(=O)c1ccc2c(c1)C(=Cc1c(OC)cccc1OC)C(=O)N2 [10728/D03] | 10.2 | 32.0%
COc1ccc(OC)c(C=C2C(=O)Nc3ccc(Br)c(C)c32)c1 [10728/C02] | -32.1 | 42.3%
O=C1Nc2ccc(I)cc2C1=Cc1cc(C(F)(F)F)ccc1F [10728/B08] | 14.8 | -6.6%
CCOC(=O)c1c(C)[nH]c(C=C2C(=O)Nc3c(Br)cc(Br)cc32)c1C [10718/A02] | 3.0 | –
COc1cc(C=C2C(=O)Nc3ccc(I)cc32)cc(OC)c1 [10728/B04] | -6.0 | 9.8%
COc1cc(N(C)C)ccc1C=C1C(=O)Nc2ccc(I)cc21 [10728/B05] | -12.3 | 9.4%
Cc1c(Br)ccc2c1C(=Cc1ccc3c(c1)Cc1ccccc1-3)C(=O)N2 [10728/C06] | 8.4 | 2.7%
O=C1Nc2ccc(S(=O)(=O)Nc3ccc(C(F)(F)F)cc3)cc2C1=Cc1coc2ccccc2c1=O [10727/E07] | 20.1 | 10.1%
O=C1Nc2c(Br)cc(Br)cc2C1=Cc1ccc(Cl)c([N+](=O)[O-])c1 [10718/A08] | 3.2 | –
O=C1Nc2c(Br)cc(Br)cc2C1=Cc1cc(C(F)(F)F)ccc1F [10728/A08] | -1.4 | 0.5%
Cc1c(Br)ccc2c1C(=Cc1cccc(C(F)(F)F)c1F)C(=O)N2 [10728/C07] | -7.2 | 8.9%
COc1cc(C=C2C(=O)Nc3c(Br)cc(Br)cc32)cc(OC)c1 [10728/A04] | -3.5 | 15.6%
O=C1Nc2ccc(S(=O)(=O)Nc3ccc(C(F)(F)F)cc3)cc2C1=Cc1ccccc1Sc1ccc(Cl)cc1 [10727/E05] | 17.1 | -7.4%
CNS(=O)(=O)c1ccc2c(c1)C(=Cc1cc(OC)ccc1OC)C(=O)N2 [10728/D02] | -0.3 | 9.8%
COc1ccc(OC)c(C=C2C(=O)Nc3c(Br)cc(Br)cc32)c1 [10728/A02] | -12.3 | -7.9%
Cc1[nH]c(C=C2C(=O)Nc3ccc(CCCl)cc32)c(Br)c1Br [10717/G11] | 16.4 | –
O=C1Nc2ccc(CCCl)cc2C1=Cc1ccccc1Sc1ccc(Cl)cc1 [10727/G05] | 8.0 | -2.3%
O=C1Nc2c(Br)cc(Br)cc2C1=Cc1c(F)cccc1C(F)(F)F [10728/A09] | -5.5 | 10.3%

Compound | Fik Kinase %Inhibition (FLK-1 receptor) [%] | PDGF Kinase %Inhibition (PDGF-R)
O=C1Nc2ccc(S(=O)(=O)N3CCOCC3)cc2C1=Cc1cc(O)ccc1O [10727/F10] | 15.9 | 9.4%
CNS(=O)(=O)c1ccc2c(c1)C(=Cc1ccc3c(c1)Cc1ccccc1-3)C(=O)N2 [10728/D06] | 10.4 | 5.8%
O=C1Nc2ccc(CCCl)cc2C1=Cc1cc(O)ccc1O [10727/G10] | -5.6 | 10.8%
N#Cc1cccc(C=C2C(=O)Nc3ccc(S(=O)(=O)Nc4ccc(C(F)(F)F)cc4)cc32)c1 [10727/E08] | 14.2 | 23.9%
O=C1Nc2ccc(S(=O)(=O)Nc3ccc(C(F)(F)F)cc3)cc2C1=Cc1cc2c(cc1Cl)OCO2 [10727/E06] | 14.2 | 9.4%
CNS(=O)(=O)c1ccc2c(c1)C(=Cc1cccc(C#N)c1)C(=O)N2 [10727/D08] | 14.1 | 5.0 ! %
O=C1Nc2ccc(S(=O)(=O)N3CCOCC3)cc2C1=Cc1cc2c(cc1Cl)OCO2 [10727/F06] | 14.5 | 8.6%
CNS(=O)(=O)c1ccc2c(c1)C(=Cc1ccccc1Sc1ccc(Cl)cc1)C(=O)N2 [10727/D05] | 8.5 | -0.1%
CCc1cc(CC)c(C=C2C(=O)Nc3ccc(S(=O)(=O)N4CCOCC4)cc32)[nH]1 [10727/F03] | 8.9 | -3.7%
O=C1Nc2ccc(S(=O)(=O)Nc3ccc(C(F)(F)F)cc3)cc2C1=Cc1cc(O)ccc1O [10727/E10] | 9.7 | 5.0%
CNS(=O)(=O)c1ccc2c(c1)C(=Cc1coc3ccccc3c1=O)C(=O)N2 [10727/D07] | 19.7 | -14.7%
O=C1Nc2c(Br)cc(Br)cc2C1=Cc1ccc2c(c1)Cc1ccccc1-2 [10728/A06] | -10.4 | -3.1%
CNS(=O)(=O)c1ccc2c(c1)C(=Cc1cc3c(cc1Cl)OCO3)C(=O)N2 [10727/D06] | 13.1 | 10.8%
COc1cccc(C=C2C(=O)Nc3ccc(CCCl)cc32)c1OC [10727/G11] | 6.9 | 15.9%
COc1cccc(C=C2C(=O)Nc3ccc(S(=O)(=O)Nc4ccc(C(F)(F)F)cc4)cc32)c1OC [10727/E11] | 37.3 | 7.9%
COc1cccc(OC)c1C=C1C(=O)Nc2ccc(I)cc21 [10728/B03] | -1.3 | 10.3%
O=C1Nc2ccc(S(=O)(=O)N3CCOCC3)cc2C1=Cc1cc(Cl)cc(Br)c1O [10727/F04] | 15.3 | -10.3%
O=C(O)COc1ccccc1C=C1C(=O)Nc2c(Br)cc(Br)cc21 [10728/A10] | -16.3 | 1.8%
N#Cc1ccc(C=C2C(=O)Nc3ccc(S(=O)(=O)Nc4ccc(C(F)(F)F)cc4)cc32)cc1 [10727/E09] | 9.3 | 15.9%
O=C1Nc2c(Br)cc(Br)cc2C1=Cc1ccc2ccccc2c1O [10718/A04] | 6.9 | –
CCOC(=O)c1cc(C=C2C(=O)Nc3c(Br)cc(Br)cc32)oc1C [10718/A06] | 7.8 | –
COC(=O)c1[nH]c(C)c(C=C2C(=O)Nc3c(Br)cc(Br)cc32)c1C(=O)OC [10718/A07] | 16.2 | –
COc1cc(Br)c(O)c(C=C2C(=O)Nc3c(Br)cc(Br)cc32)c1 [10718/A03] | 7.6 | –
